For data set [1], the system named is Caco-2 colon cancer cell line. In words: MTT cytotoxicity, Caco-2. The class given is cell-based, human. As to conditions: Caco-2, three days, read-out: EC50 (50% reduction in cell viability). The procedure:
(§1) The cytotoxic activity of various phospho-derivatives of branched-chain fatty acids (DP-BFAs) was assayed in vitro in cell cultures that include normal and malignant cell types. The following cell systems were used: • Primary fibroblasts (human) • Normal bone marrow (BM) cells (mouse) • Primary bronchial epithelial cells (human, from Clonetics, cat. no. CC-2541) • Caco-2—colon cancer cell line (human, ATTC, HTB-37) • C6 glioma cell line (rat, ATCC, CRL-2199) • Neuro2a—neuroblastoma cell line (mouse, ATCC, CCL-131) • SKBR-3—breast cancer cell line (human, ATTC, HTB-30) • HL60—myeloid leukemia cell line (human, ATCC, CCL-240) • U937—myeloid leukemia cell line (human)
(§2) Cells were seeded in a microtiter plate in MEM containing 2 mM L-glutamine, 100 units/ml penicillin, 100 ug/ml streptomycin and 10% FCS at 37° C. The cultured cells were incubated, during their linear growth phase in the absence (control group) or presence of various DP-BFAs as indicated. The final concentrations of the tested DP-BFAs ranged from 1.5 to 200 microMolars. At the end of the incubation period, which was five days for the bone marrow cells and three days for all the other cell lines, the cytotoxic effect of the added P-BFA on the cells was estimated by using the colorimetric MTT assay. The MTT assay (Mosmann (1983) J. Immunol Methods 65: 55–63) measures mitochondrial reductase activity and serves for quantitative assessment of cellular viability. Drug concentration that causes 50% reduction in cell viability in comparison to the control group, is defined as EC50. The EC50 values of the tested DP-BFA compounds were calculated from dose response curves established for each of the different assayed cell lines.
(§3) Each EC50 value is an average of EC50 values derived from 1–5 independent experiments.

The test system of data set [2] is Neuro2a neuroblastoma cell line. In words: MTT cytotoxicity, Neuro2a. Format: cell-based, mouse. As to conditions: three days, read-out: EC50 (50% reduction in cell viability). The procedure: as §1, §2, §3
Data set [3] relates to SKBR-3 breast cancer cell line. Briefly: MTT cytotoxicity, SKBR-3. As to conditions: three days, read-out: EC50 (50% reduction in cell viability). Format: cell-based, human. The procedure:
as §1, §2, §3

Data set [4] deals with U937 myeloid leukemia cell line. In words: MTT cytotoxicity, U937. As to conditions: U937, three days, read-out: EC50 (50% reduction in cell viability). The class given is cell-based, human. The procedure: as §1, §2, §3
Data set [5] relates to blood brain barrier (BBB). In words: BBB permeabilization in rats, Evans blue extravasation into brain. Format: in vivo, Sprague-Dawley rats. As to conditions: for MEC (minimal effective concentration): concentration giving 3 μg EB/g brain. From the text:
Permeabilization of the BBB by DP-BFA was investigated in rat model system by monitoring accumulation in the brain of two markers: a) Evans blue dye (EB), which rapidly binds in vivo with albumin (NW 70 kD) and is an indicator for paracellular transport; and b) Fluorescein sodium salt (F—Na), MW 376 D, which is transported via the cellular space, and enables monitoring transcellular transport. Upon BBB disruption the Evans blue-albumin complex irreversibly accumulates in the intercellular space of the brain. The much smaller tracer fluorescein may be transported intracellularly to occupy both inter and intracellular space in the brain.
Blood brain barrier permeabilization in Sprague-Dawley rats was induced by brief exposure to DP-BFA. The animals were anesthetized with Rampun-Imalgen and DP-BFA test compounds were administered via the external carotid artery retrograde to the brain (Smith, Q. R. Methods of study. In: Physiology and Pharmacology of the Blood-Brain Barrier. Ed. Bradbury M. W. B. Spinger-Verlag. Berlin-Heidelberg-NY; 1992: 24–52). The pterygo-palathina artery was ligated to avoid escape of infused solutions towards the external head vasculature. DP-BFA solutions were infused over a period of 30 seconds or half an hour, using a Harvard Apparatus Syringe Pump. Blood flow through carotid communis artery was interrupted only at the time of infusion.
All tested DP-BFA molecules were prepared from stock solutions in either water or ethanol by diluting 200–1000 fold into solution of isosmotic mannitol (5%) in Tromethamine buffer (Sigma) or PBS (pH 7.4)
The markers, Evans blue (EB, 25 mg/ml) and fluorescein (F—Na, 12.5 mg/ml), in 1 ml solution, were injected intravenously immediately following administration of the tested DP-BFA, or after a specific time interval if reversibility of action was investigated. Supportive i.v. infusion of F—Na (12.5 mg/ml–100 μl/min) was performed for 8 minutes. Brains were washed with saline solution (60 ml) 10 min after the intracarotid “flash”. Brain ipsilateral and contralateral hemispheres and tumors, where applicable, were homogenized separately with 50% trichloroacetic acid (TCA). The markers concentrations in the cortex and in tumors, where, applicable, were determined spectrofluorometrically (Uyama, O. et al., (1988) J. Cereb. Blood Flow Metab. 8, 282–284: Abraham et al., (1996) Neurosci. Lett. 208, 85–88). The markers content was calculated as μg marker per one-gram brain tissue. Standard error and Student's test for statistical significance were used.
The experiment was carried out on male Sprague-Dawley rats weighing 250–320 g. The procedure described above in Example 17 was followed.
The effect of the tested compounds on the BBB opening was evaluated by two parameters:
a) efficacy—The degree of BBB opening estimated in terms of accumulation of Evans Blue albumin (μg EB/g brain tissue); and
b) potency—measured in terms of EC50 and minimal effective concentration (MEC) values. EC50 is the concentration of a tested compound producing 50% of the maximal effect of Evans Blue extravasation.
The effect of various DP-BFAs on BBB permeability was tested in the model system of rat brains, as described above in Example 17. Efficacy, namely the level of the BBB opening was expressed as the amount of Evans blue accumulated in the brain (μg EB/g brain). Potency of the tested molecules was estimated by their calculated EC50 and minimal effective concentration (MEC) values.

The subject of data set [6] is blood brain barrier (BBB). Briefly: BBB permeability to EB-albumin and Fluorescein in normal rat brains. Format: in vivo. As to conditions: compounds at EC50 (Mannitol 25%); for % EB/g brain: control 0.04 ± 0.01; for Brain fluorescein uptake (% of serum F-Na level): control 0.3 ± 0.08; for Ratio F-Na/EB (mean of individual ratios): control 9.5 ± 1.6. From the text:
The effect of various DP-BFAs on BBB permeabilization to molecules of different sizes was examined in vivo in the model system of normal rat brains.
The transport of two markers was followed: a) Evans blue bound to albumin (MW 70 kD) as an indicator for paracellular transport; and b) Fluorescein sodium salt (MW 376 D) that represents small size molecules.
The Evans blue dye (EB) and Fluorescein sodium salt (F—Na) were infused into the artery carotis externa over 30 seconds according to the protocol described above in Example 17. The test compounds were used at their EC50 concentrations. Control animals were treated with vehicle solution.
Evans blue extravasation is expressed as the percentage of the total amount of EB accumulated per one gram of brain tissue. The transport of fluorescein into the brain, which is dependent on the serum concentration of this molecule, is presented as percentage of the F—Na level in the serum.

In data set [7] the test system is Chinese hamster ovary (CHO) AA8 cell line. In words: LDH release toxicity assay in cultured CHO AA8 cells. Format: cell-based. As to conditions: 1 hour incubation, read-out: LC50 (the source's name). The procedure: Various DP-BFA molecules were screened in cultured Chinese hamster ovary (CHO) AA8 cell line in order to establish their toxicity. LC50 values, i.e. the concentrations causing death in 50% of cell population, were calculated from dose response curves. LC50 values of phospho-BFAs were compared to those of the corresponding branched fatty acids (=carbo-BFAs).
Lactate dehydrogenase (LDH) release was used as an assay for the integrity of the cells membrane and, thus, for estimation of toxicity. Cells (2×10^5/ml) were seeded (150 μl/well) in 96 well plates, in RPMI-1640 medium containing 10% FCS. After two days, tested DP-BFA compounds or the control compound myristic acid were added to the plates in declining concentrations ranging from 500 to 1 μg/ml. Cells were harvested after one hour. […] Other controls included, two blank wells and five wells containing cells with no additional drugs. Following centrifugation (1500 rpm, 5 min), 75 μl of the supernatant was transferred to a new plate with 45 μl of an LDH assay mix (Tox-7 kit, Sigma). After 10–20 minutes at room temperature, absorbance was measured using an Elisa Reader 490 nm.
Each experiment was performed in triplicate.
Background: LDH leaks from cells whose membrane has failed.

The format of data set [8] is in vivo. Conditions: rats, sodium salt. The procedure:
DP-BFA molecules were evaluated for safety and toxicity. Increasing doses of the tested compounds were administered intra-arterially (i.a.) into rats following the protocol described above in Example 17. Animal viability was monitored for 24 hours to evaluate lethal concentrations (LC). LC is defined as the minimal concentration that caused death.
Safety index is defined as the ratio between the lethal dose (LC) and the minimal effective concentration (MEC), wherein MEC corresponds to a calculated concentration of the tested compound that elicits accumulation of three times the amount of Evans blue accumulated in control animals treated with vehicle only, i.e. total accumulation of 3 μg EB. The higher the LC/MEC ratio is, the higher the safety index.

A short description of data set [9]: Octanol/saline solubility and partition coefficient, shake-flask technique.
Protocol: The lipophilicity values of various derivatives of branched fatty acids were estimated by comparing the solubility of these compounds in organic versus aqueous solutions. Octanol and physiological saline were used, respectively, as the organic and aqueous solutions. The partition coefficient (Pc) value, i.e. the octanol/saline distribution was measured by the shake-flask technique.
The test system of data set [10] is HL60 myeloid leukemia cell line. Briefly: MTT cytotoxicity, HL60. The class given is cell-based, human. As to conditions: HL60, three days, read-out: EC50 (50% reduction in cell viability). As for the experimental part:
as §1, §2, §3

Data set [11] has as its system Normal bone marrow (BM) cells. In words: MTT cytotoxicity, normal bone marrow cells. Conditions: five days, read-out: EC50 (50% reduction in cell viability). Format: cell-based, mouse. As for the experimental part: as §1, §2, §3
Data set [12] deals with Primary bronchial epithelial cells. In words: MTT cytotoxicity, normal primary epithelial cells. Format: cell-based, human. Conditions: Normal primary epithel, three days, read-out: EC50 (50% reduction in cell viability). The procedure: as §1, §2, §3
[13] abbreviates: Table 6, rat brains, Evans blue extravasation, read-out: EQ50 (the source's name).

Like-named read-outs stand apart in the source and are kept apart here.

For the compound `CCCCCCCCCCCCC(CCC)C(=O)OCCOP(=O)([O-])[O-].[Na+].[Na+]` (centres unmarked) [3,12-MEG-PO4Na2, 2-(2′-Propyltetradecanoyloxy)ethyl Disodium Phosphate], the EC50 was above 200 µM in data set [1]; 60 µM in data set [2]; above 200 µM in data set [3]; 75 µM in [4]; 18 ± 3 µM in [5] (setting [13]). Moreover, the “μg EB/g brain (at EC50)” value in [5] (Table 6, at EC50 (Mannitol at 25%)) came to 5 ± 1 μg EB/g brain. Also, in data set [5] (Table 6), the “MEC (minimal effective concentration)” value came out at 11 ± 2 µM. The “% EB/g brain” value in data set [6] turned out to be 0.8 ± 0.1%. Moreover, in data set [6], the “Brain fluorescein uptake (% of serum F-Na level)” value was 5.0 ± 0.8 % of the F—Na level in the ser. Moreover, in [6], the “Ratio F-Na/EB (mean of individual ratios)” value is 8.4 ± 0.9.
`CCCCCCCC(CCCCCCC)OP(=O)(O)O` [7,7-PO4Na2, 8-Pentadecanyl Disodium Phosphate]: the CC50 in data set [7] was found to be 320 µM.
For the compound `CCCCCCCC(CCCCCCC)C(=O)[O-].[Na+]` [7,7-Na, reference compound], the CC50 in data set [7] came to 65 µM. In addition, the “μg EB/g brain (at EC50)” value in [5] (Table 5, at EC50) worked out at 4.2 ± 0.6 μg EB/g brain. For the same compound, the “MEC (minimal effective concentration)” value in [5] (Table 5) came out at 132 ± 19. Moreover, the EC50 in [5] (Table 5, rat brain, intracarotid infusion, read-out: EC50 (Evans Blue extravasation)) was found to be 184 ± 21 µM. Besides, the MEC in [5] (Table 8, sodium salt, in µM) is reported as 132 ± 19. For the same compound, in data set [8] (i.a., viability monitored 24 hours), the “LC (minimal concentration that caused death)” value was found to be 360 ± 67 µM. In data set [8], the “Safety LC/MEC” value was 2.7. The “LogPc (octanol-saline partition coefficient)” value in [9] (octanol/physiological saline, sodium salts) was 1.33. For the same compound, the “Water mg/ml (solubility in aqueous solution)” value in data set [9] (physiological saline as aqueous solution, sodium salts) was above 25 mg/mL. In addition, the “Octanol mg/ml (solubility in octanol)” value in data set [9] (sodium salts of the branched fatty acids and their PO4 derivatives) is above 50 mg/mL.
For 4-Octadecanyl phosphocholine [3,14-PC], the EC50 in [10] came to 7 µM; in [4], 4 µM; in [11], 160 µM; in data set [12] it was 72 µM.
On to `CCCCCCCCCCCCCCCCCCC(CCC)C(=O)OCCOCCOP(=O)([O-])OCC[N+](C)(C)C` (centres unmarked) [3,18-DEG-PC, 2-(2′-Propyleicosanoyloxy)ethoxyethylphosphocholine], for which the EC50 in data set [10] (Homo sapiens, HL-60, 72 h) came out at 13 µM; in data set [4] (Homo sapiens, U-937, 72 h) it was 6 µM; in data set [11] (Mus musculus, Bone marrow cell, 120 h), 80 µM; in data set [12] (Homo sapiens, Primary bronchial epithelial cell, 72 h), 60 µM.
For the compound `CCCCCCCCCCCCC(CCC)OP(=O)([O-])[O-].[Na+].[Na+]` (centres unmarked) [3,12-PO4Na2, 4-Hexadecanyl Disodium Phosphate], the CC50 in data set [7] is 320 µM. Besides, the EC50 in [1] was above 200 µM; in [2], 105 µM; in data set [3], above 200 µM; in data set [4] it was 90 µM; in [5] (setting [13]), 55 ± 1 µM. In addition, the “μg EB/g brain (at EC50)” value was determined as 20 ± 3 μg EB/g brain in data set [5] (Table 6, at EC50 (Mannitol at 25%), listed as 3,12-PO4-Na2) and 20 μg EB/g brain in [5] (Table 6, at EC50 (Mannitol at 25%), listed as 3,12-PO4—Na2). In data set [5] (Table 6), the “MEC (minimal effective concentration)” value stood at 3.3 ± 0.5 µM. Further, in data set [6], the “% EB/g brain” value amounted to 2.9 ± 0.6%. For the same compound, the “Brain fluorescein uptake (% of serum F-Na level)” value in [6] is 8.2 ± 0.9 % of the F—Na level in the ser. The “Ratio F-Na/EB (mean of individual ratios)” value in data set [6] was 5.9 ± 1.0.

These data come from US7186703B2, “Derivatives of branched-chain lipophilic molecules and uses thereof” (D-Pharm Ltd., priority 2000, dated 2007).
